US11911356B2, “Regulation of mutant TERT by BRAF V600E/map kinase pathway through FOS/GABP in human cancer” (THE JOHNS HOPKINS UNIVERSITY, priority 2017, dated 2024)

What was measured:
ERK phosphorylation = assay: Western blotting of phosphorylated ERK in inhibitor-treated cells; format: cell-based, human; details: cells harboring wild-type BRAF; 0.2 uM AZD6244, 24 hours
Method: FIG. 2A-2G. BRAF V600E/MAPK pathway regulated TERT expression. (FIG. 2A) TERT expression was analyzed by qRT-PCR in cells treated with 0.5 uM PLX4032 or 0.2 uM AZD6244 for 24 hours (upper panel). The corresponding levels of phosphorylated ERK (p-ERK), total ERK (t-ERK), and beta-actin were detected by Western blotting (lower panel). The relative TERT mRNA expression levels were normalized to the DMSO control group. (FIG. 2B) Luciferase reporting assay of TERT promoter activities in K1 cells treated with DMSO or PLX4032 (0.5 uM). (FIG. 2C, 2D) Specific shRNA against BRAF were used to knock down BRAF in thyroid cancer cell lines BCPAP and K1 and melanoma cell line A375. Scramble shRNA was used as control. Cells were then subjected to Western blotting (FIG. 2C) and qRT-PCR (FIG. 2D). (FIG. 2E) Sequencing of the BRAF exon-15 in the parental and heterozygous BRAF-V600E knock-in SW48 cells. BRAF V600E was knocked in on one allele of BRAF by rAAV technology through homologous recombination and Cre recombinase of the Neo cassette. (FIG. 2F) Western blotting analyses of phosphorylation of ERK (p-ERK), total ERK (t-ERK), BRAF, and beta-actin in the parental and BRAF-V600E knock-in SW48 cells. (FIG. 2G) TERT promoter luciferase reporter assay in SW48 cells with/without BRAF V600E knock-in. **P<0.01, ***P<0.001, by 2-tailed Student's t test. P values are for the comparison of the indicated condition with DMSO (FIG. 2B), scramble (FIG. 2D), or BRAF-WT groups (FIG. 2G). All the values represent the average standard deviation (SD) of triplicate samples from a typical experiment. All the experiments were performed three times with similar results. […]
Cells were lysed in the RIPA buffer (#sc-24948; Santa Cruz Biotechnology, Santa Cruz, CA) with protease inhibitor cocktail (#P8340; Sigma-Aldrich) and phosphatase inhibitor cocktail (#P0044; Sigma-Aldrich) and Western blotting analysis was performed as we previously described^54. […] Signals were detected by SuperSignal™ West Pico PLUS Chemiluminescent Substrate (#34579; Thermo Fisher Scientific). […]

TERT expression = TERT expression by qRT-PCR in human cancer cell lines treated with inhibitors; format: cell-based; details: 0.2 uM AZD6244, 24 hours
Method: FIG. 2A-2G. BRAF V600E/MAPK pathway regulated TERT expression. (FIG. 2A) TERT expression was analyzed by qRT-PCR in cells treated with 0.5 uM PLX4032 or 0.2 uM AZD6244 for 24 hours (upper panel). The corresponding levels of phosphorylated ERK (p-ERK), total ERK (t-ERK), and beta-actin were detected by Western blotting (lower panel). The relative TERT mRNA expression levels were normalized to the DMSO control group. (FIG. 2B) Luciferase reporting assay of TERT promoter activities in K1 cells treated with DMSO or PLX4032 (0.5 uM). (FIG. 2C, 2D) Specific shRNA against BRAF were used to knock down BRAF in thyroid cancer cell lines BCPAP and K1 and melanoma cell line A375. Scramble shRNA was used as control. Cells were then subjected to Western blotting (FIG. 2C) and qRT-PCR (FIG. 2D). (FIG. 2E) Sequencing of the BRAF exon-15 in the parental and heterozygous BRAF-V600E knock-in SW48 cells. BRAF V600E was knocked in on one allele of BRAF by rAAV technology through homologous recombination and Cre recombinase of the Neo cassette. (FIG. 2F) Western blotting analyses of phosphorylation of ERK (p-ERK), total ERK (t-ERK), BRAF, and beta-actin in the parental and BRAF-V600E knock-in SW48 cells. (FIG. 2G) TERT promoter luciferase reporter assay in SW48 cells with/without BRAF V600E knock-in. **P<0.01, ***P<0.001, by 2-tailed Student's t test. P values are for the comparison of the indicated condition with DMSO (FIG. 2B), scramble (FIG. 2D), or BRAF-WT groups (FIG. 2G). All the values represent the average standard deviation (SD) of triplicate samples from a typical experiment. All the experiments were performed three times with similar results.
FIG. 3A-3C. MYC regulated TERT expression in a TERT promoter mutation-independent manner. (FIG. 3A) The four indicated cancer cell lines harboring BRAF V600E mutation were treated with 0.5 uM PLX4032 and/or 10 nM MYC-specific siRNA (siMYC) for 24 hours, which were then subjected to Western blotting (upper panel) and qRT-PCR (lower panel). The relative TERT mRNA expression was normalized to the control group. (FIG. 3B, 3C) Parental and BRAF V600E knock-in SW48 cells were treated with control siRNA (siControl) or MYC-specific siRNA (siMYC, 10 nM) for 48 h, followed by Western blotting (FIG. 3B) and luciferase reporter assays (FIG. 3C). *P<0.05, **P<0.01, ***P<0.001, by 2-tailed Student's t test. n.s., not significant. All the values represent the average standard deviation (SD) of triplicate samples from a typical experiment. Similar results were obtained in two additional independent experiments.
FIG. 9A-9B. Summarized effects of PLX4032 (FIG. 9A) and AZD6244 (FIG. 9B) on TERT mRNA expression. Each bar represents the average+SD of the cells with the same genotypes as follows: BRAF-mut and TERT-mut cell lines: BCPAP, K1, OCUT1, A375, and M14; BRAF-mut and TERT-wt cell lines: SK-MEL-1, SK-MEL-3, and RKO; BRAF-wt and TERT-mut cell lines: TPC1, KAT18, C643, CHL-1, SK-MEL-2, and Mewo; BRAF-wt and TERT-wt cell lines: FB1, WRO, and HTORI3. Compared with the corresponding control of DMSO, **P<0.01, ***P<0.001, by independent t-test.
The BRAF V600E-specific inhibitor PLX4032 (#S1267) and the MEK1 inhibitor AZD6244 (#S1008) were purchased from Selleck Chemicals (Houston, TX), dissolved in DMSO with a stock concentration of 10 mM and stored at −20° C. PLX4032 and AZD6244 were used to treat cells for 24 hours at 0.5 μM and 0.2 μM, respectively, where indicated in the manuscript. DMSO was used as the vehicle control.
Total RNA was extracted from cultured cells using the TRIzol reagent (#15596-018; Ambion, Life Technologies, Carlsbad, CA) and reverse-transcribed to cDNA using the SuperScript III First-Strand Synthesis System (#18080-051; Invitrogen, Life Technologies, Carlsbad, CA). Gene expression was analyzed in triplicate using FastStart Universal SYBR Green Master with ROX (#04913850001; Roche Applied Science, Indianapolis, IN) on the Applied Biosystems 7900HT Fast Real-Time PCR System. […]

Question: Which results are given for Cn1cnc2c(F)c(Nc3ccc(Br)cc3Cl)c(C(=O)NOCCO)cc21 [AZD6244]?
Answer: ERK phosphorylation (ERK phosphorylation): modest inhibitory effect; TERT expression (TERT expression; cells harboring BRAF V600E mutation): similarly inhibited TERT expression; TERT expression (TERT expression; cells harboring wild-type BRAF, TERT promoter mutant versus wild-type): inhibited TERT expression more in those harboring TERT promoter mutations
